Source: ChEMBL document CHEMBL3822366, “Design, synthesis and anticancer activity of novel hybrid compounds between benzofuran and N-aryl piperazine” (Bioorg Med Chem Lett, 2016)

Legend:
HeLa = experiment: Cytotoxicity against human HeLa cells after 48 hrs by MTT assay; format: functional, cell-based
A549 = experiment: Cytotoxicity against human A549 cells after 48 hrs by MTT assay; format: functional, cell-based; details: A549, 48 h
[1] = Cytotoxicity against human SGC7901 cells after 48 hrs by MTT assay; format: functional, cell-based; details: SGC-7901, 48 h
MCF7 = experiment: Cytotoxicity against human MCF7 cells after 48 hrs by MTT assay; format: functional, cell-based; details: MCF7, 48 h
[2] = Cytotoxicity against human L02 cells at <40 uM after 48 hrs by MTT assay; format: cell-based; details: l02, 48 h

Row | SMILES | IC50 (HeLa) | IC50 (A549) | IC50 [1] | IC50 (MCF7) | Activity [2]
1 | CCN(CC)c1ccc2cc(C(=O)c3ccc(N4CCN(C(C)=O)CC4)cc3)oc2c1 | 5.15 µM | 30.1 µM | 25.6 µM | 16.2 µM | 
2 | CCN(CC)c1ccc2cc(C(=O)c3ccc(N4CCN(C(=O)c5ccc(Cl)c(Cl)c5)CC4)cc3)oc2c1 | 15.2 µM | 0.22 µM | 5.84 µM | 8.08 µM | 
3 | CCN(CC)c1ccc2cc(C(=O)c3ccc(N4CCN(S(=O)(=O)c5ccc([N+](=O)[O-])cc5)CC4)cc3)oc2c1 | > 40 µM | 24.4 µM | 1.86 µM | > 40 µM | 
4 | CCN(CC)c1ccc2cc(C(=O)c3ccc(N4CCN(C(=O)c5ccc(Br)cc5F)CC4)cc3)oc2c1 | 0.53 µM | 20.4 µM | 13.5 µM | > 40 µM | 
5 | CCN(CC)c1ccc2cc(C(=O)c3ccc(N4CCN(C(=O)c5ccccc5)CC4)cc3)oc2c1 | 15.2 µM | > 40 µM | > 40 µM | > 40 µM | 
6 | CCN(CC)c1ccc2cc(C(=O)c3ccc(N4CCN(C(=O)c5ccccc5Cl)CC4)cc3)oc2c1 | 0.34 µM | 6.11 µM | 12 µM | 26.3 µM | 
7 | CCN(CC)c1ccc2cc(C(=O)c3ccc(N4CCN(C(=O)c5cccc(C(F)(F)F)c5)CC4)cc3)oc2c1 | 0.4 µM | 9.27 µM | 11.3 µM | 34.1 µM | 
8 | CCN(CC)c1ccc2cc(C(=O)c3ccc(N4CCN(S(=O)(=O)c5ccc(Br)cc5)CC4)cc3)oc2c1 | > 40 µM | 34.3 µM | > 40 µM | 26.1 µM | 
9 | CCN(CC)c1ccc2cc(C(=O)c3ccc(N4CCN(S(=O)(=O)c5ccc(C)cc5)CC4)cc3)oc2c1 | 37.8 µM | > 40 µM | > 40 µM | > 40 µM | 
10 | CCN(CC)c1ccc2cc(C(=O)c3ccc(N4CCN(S(=O)(=O)c5ccc(F)cc5)CC4)cc3)oc2c1 | 21.6 µM | 16.4 µM | > 40 µM | 21.7 µM | 
11 | CCN(CC)c1ccc2cc(C(=O)c3ccc(N4CCN(S(=O)(=O)c5ccc(C(F)(F)F)cc5)CC4)cc3)oc2c1 | 9.72 µM | 11.1 µM | 0.17 µM | > 40 µM | 
12 | CCOC(=O)N1CCN(c2ccc(C(=O)c3cc4ccc(N(CC)CC)cc4o3)cc2)CC1 | 20.3 µM | > 40 µM | > 40 µM | > 40 µM | 
13 | CCN(CC)c1ccc2cc(C(=O)c3ccc(N4CCN(S(=O)(=O)c5ccc(Br)c(F)c5)CC4)cc3)oc2c1 | 20.7 µM | 15.1 µM | > 40 µM | 2.27 µM | 
14 | CCN(CC)c1ccc2cc(C(=O)c3ccc(N4CCN(C(=O)c5ccc([N+](=O)[O-])c([N+](=O)[O-])c5)CC4)cc3)oc2c1 | 25.2 µM | > 40 µM | > 40 µM | 19.6 µM | 
15 | CCN(CC)c1ccc2cc(C(=O)c3ccc(N4CCN(C(=O)COc5ccc(Cl)cc5Cl)CC4)cc3)oc2c1 | 0.03 µM | 5.73 µM | 6.17 µM | 12.4 µM | Non-toxic
16 | CCN(CC)c1ccc2cc(C(=O)c3ccc(N4CCN(S(C)(=O)=O)CC4)cc3)oc2c1 | > 40 µM | > 40 µM | > 40 µM | > 40 µM | 
